Values belong to the molecule of their own block, whether it stands above or below them. Calls of active or inactive are those of the source.
Tests used:
[1] = cytotoxicity toward HT-29 cells – cell-based, CellTiter-Glo luminescence, IC50, dose response (AID 1117330); assay type: functional
[2] = RKO cell viability reduction, dose response, CellTiter-Glo luminescence (AID 1117322); assay type: functional
[3] = test system: Danio rerio; assay: In Vivo Angiogenesis Dose-Response Confirmation. [Related pubchem assays: 732 (Assay preceding this confirmatory assay.)]; assay type: functional, organism-based
[4] = Reduced DLD-1 viability, concentration-response, CellTiter-Glo luminescence (AID 1117352); assay type: functional
[5] = rise of 2N DNA cells, HeLa – IC50, dose response (AID 1117349); assay type: functional, cell-based
[6] = cytotoxicity toward Colo320 cells – cell-based, CellTiter-Glo luminescence, IC50, dose response (AID 1117334); assay type: functional; settings: COLO 320
[7] = SNU-C1 cell viability reduction, dose response, CellTiter-Glo luminescence (AID 1117323); assay type: functional, cell-based
[8] = CellTiter-Glo luminescence survival assay, SW480 colon tumor line, concentration-response curve, half-maximal inhibitory concentration (AID 1117338); assay type: functional
[9] = cytotoxicity toward HCT116 cells – cell-based, CellTiter-Glo luminescence, IC50, dose response (AID 1117332); assay type: functional; settings: HCT-116
[10] = rise of 4N DNA cells, HeLa – IC50, dose response (AID 1117351); assay type: functional, cell-based
[11] = target: Dual specificity protein phosphatase 6 (Rattus norvegicus, UniProt Q64346); assay: inhibition of rat DUSP6 enzyme activity – biochemical, in vitro, primary screen (AID 425)
Sequence of Dual specificity protein phosphatase 6 (Q64346 whole entry): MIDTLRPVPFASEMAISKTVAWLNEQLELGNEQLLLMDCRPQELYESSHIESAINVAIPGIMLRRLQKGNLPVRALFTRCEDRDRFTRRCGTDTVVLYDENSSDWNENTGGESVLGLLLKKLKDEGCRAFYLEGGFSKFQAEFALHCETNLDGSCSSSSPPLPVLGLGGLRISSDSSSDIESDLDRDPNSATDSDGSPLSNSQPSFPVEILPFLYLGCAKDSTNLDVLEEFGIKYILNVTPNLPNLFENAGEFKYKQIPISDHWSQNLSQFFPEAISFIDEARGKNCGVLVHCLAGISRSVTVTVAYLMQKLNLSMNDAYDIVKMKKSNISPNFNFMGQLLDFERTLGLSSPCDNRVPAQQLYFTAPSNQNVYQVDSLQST

[12] = target: Peroxisome proliferator-activated receptor gamma/Nuclear receptor corepressor 2 (Homo sapiens, UniProt P37231+Q9Y618); assay: Counterscreen for NR2E3 inverse agonists: TR-FRET-based biochemical high throughput dose response assay to identify inverse agonists of the interaction between peroxisome proliferator-activated receptor gamma (PPARg) and nuclear receptor co-repressor 2 (NCOR2).; assay type: functional
[13] = target: Photoreceptor-specific nuclear receptor (Homo sapiens, UniProt Q9Y5X4); assay: ligands suppressing NR2E3 nuclear receptor activity – biochemical, TR-FRET, dose response (AID 463256); assay type: functional
Sequence of Photoreceptor-specific nuclear receptor (Q9Y5X4 whole entry): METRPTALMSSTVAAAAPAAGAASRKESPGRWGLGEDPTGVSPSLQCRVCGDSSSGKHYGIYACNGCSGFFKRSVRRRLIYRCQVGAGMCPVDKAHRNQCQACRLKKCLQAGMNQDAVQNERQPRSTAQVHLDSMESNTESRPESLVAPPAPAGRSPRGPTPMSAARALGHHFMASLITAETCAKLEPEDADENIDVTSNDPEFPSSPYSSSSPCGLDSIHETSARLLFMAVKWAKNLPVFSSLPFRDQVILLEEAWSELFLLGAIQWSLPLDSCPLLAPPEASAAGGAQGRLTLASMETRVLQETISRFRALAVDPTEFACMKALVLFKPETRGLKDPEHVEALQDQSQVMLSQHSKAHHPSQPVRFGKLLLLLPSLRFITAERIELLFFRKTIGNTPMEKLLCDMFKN

[14] = target: E3 ubiquitin-protein ligase Mdm2 (Homo sapiens, UniProt Q00987); assay: MDM2-luc reporter signal enhancers, multi-concentration potency testing, MDM2 ubiquitin-protein ligase inhibitor program, whole-cell format, luminescence detection, 384-well microplate (AID 1394); assay type: functional;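 note: MDM2 E3 inhibitors raise luminescence so EC50 is for signal enhancement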
Sequence of E3 ubiquitin-protein ligase Mdm2 (Q00987 whole entry): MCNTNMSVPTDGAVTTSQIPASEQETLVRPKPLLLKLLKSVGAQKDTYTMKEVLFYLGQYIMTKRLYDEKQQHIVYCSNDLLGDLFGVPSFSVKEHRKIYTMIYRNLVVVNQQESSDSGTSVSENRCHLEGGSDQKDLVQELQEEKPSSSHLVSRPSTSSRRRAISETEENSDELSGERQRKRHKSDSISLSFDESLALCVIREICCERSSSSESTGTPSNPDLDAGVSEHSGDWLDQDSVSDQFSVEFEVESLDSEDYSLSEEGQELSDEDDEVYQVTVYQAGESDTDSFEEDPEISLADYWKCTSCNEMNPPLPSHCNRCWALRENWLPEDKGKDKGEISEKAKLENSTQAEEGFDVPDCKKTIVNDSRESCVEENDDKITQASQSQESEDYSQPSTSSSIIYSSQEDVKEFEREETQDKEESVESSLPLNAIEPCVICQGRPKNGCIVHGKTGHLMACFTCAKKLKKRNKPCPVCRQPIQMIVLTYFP

[15] = target: Luciferin 4-monooxygenase (Photinus pyralis, UniProt P08659); assay: inhibition of purified Photinus pyralis luciferase – biochemical, luminescence, dose response (AID 1891)
Sequence of Luciferin 4-monooxygenase (P08659 whole entry): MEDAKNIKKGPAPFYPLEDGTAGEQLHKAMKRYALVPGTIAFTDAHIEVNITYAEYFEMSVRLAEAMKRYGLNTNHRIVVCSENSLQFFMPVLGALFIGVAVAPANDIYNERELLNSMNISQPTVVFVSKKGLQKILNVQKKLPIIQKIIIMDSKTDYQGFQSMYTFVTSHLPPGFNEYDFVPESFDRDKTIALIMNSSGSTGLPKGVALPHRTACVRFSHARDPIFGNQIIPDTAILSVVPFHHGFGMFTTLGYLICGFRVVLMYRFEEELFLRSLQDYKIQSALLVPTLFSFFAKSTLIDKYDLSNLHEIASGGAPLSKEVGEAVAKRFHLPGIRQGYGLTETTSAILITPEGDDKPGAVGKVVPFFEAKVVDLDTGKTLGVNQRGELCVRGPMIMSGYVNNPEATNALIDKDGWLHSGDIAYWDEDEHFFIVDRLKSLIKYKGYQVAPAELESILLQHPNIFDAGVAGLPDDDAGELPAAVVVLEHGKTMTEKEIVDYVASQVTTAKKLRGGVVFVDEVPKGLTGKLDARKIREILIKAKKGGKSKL

[16] = Luminescence Cell-Based Dose Confirmation HTS to Identify Inhibitors of Platelet Dense Granule Release. [Related pubchem assays: 1663 (Primary HTS), 1678 (Summary of Project)]; assay type: functional
[17] = Fluorescence Cell-Based Dose Response to Identify Inhibitors of Thrombin Receptor-Activating Peptide SFLLRN-Mediated P-Selectin Induction on Platelets. [Related pubchem assays: 1663 (Primary HTS), 1889 (retest at dose ), 1891 (counterscreen), 1678 (Project Summary)]; assay type: functional
[18] = target: SUMO E1/E2 (Homo sapiens, UniProt P63279+Q9UBE0+Q9UBT2); assay: SAR analysis of SUMOylation using HTRF in an in-Vitro dose response assay. [Related pubchem assays (depositor defined):AID2006, AID2011, AID2018, AID2069, AID2658]; assay type: functional
Sequence of SUMO E1/E2 (Q9UBE0 whole entry): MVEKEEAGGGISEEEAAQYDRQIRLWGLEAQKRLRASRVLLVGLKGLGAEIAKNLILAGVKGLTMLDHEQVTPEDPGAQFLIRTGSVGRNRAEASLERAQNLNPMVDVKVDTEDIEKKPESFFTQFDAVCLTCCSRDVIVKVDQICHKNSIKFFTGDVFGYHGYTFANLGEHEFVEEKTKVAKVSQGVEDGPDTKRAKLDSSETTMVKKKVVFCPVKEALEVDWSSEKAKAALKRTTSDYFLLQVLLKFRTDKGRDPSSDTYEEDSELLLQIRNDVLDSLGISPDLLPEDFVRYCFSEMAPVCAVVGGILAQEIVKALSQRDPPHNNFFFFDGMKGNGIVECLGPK
Sequence of SUMO E1/E2 (Q9UBT2 whole entry): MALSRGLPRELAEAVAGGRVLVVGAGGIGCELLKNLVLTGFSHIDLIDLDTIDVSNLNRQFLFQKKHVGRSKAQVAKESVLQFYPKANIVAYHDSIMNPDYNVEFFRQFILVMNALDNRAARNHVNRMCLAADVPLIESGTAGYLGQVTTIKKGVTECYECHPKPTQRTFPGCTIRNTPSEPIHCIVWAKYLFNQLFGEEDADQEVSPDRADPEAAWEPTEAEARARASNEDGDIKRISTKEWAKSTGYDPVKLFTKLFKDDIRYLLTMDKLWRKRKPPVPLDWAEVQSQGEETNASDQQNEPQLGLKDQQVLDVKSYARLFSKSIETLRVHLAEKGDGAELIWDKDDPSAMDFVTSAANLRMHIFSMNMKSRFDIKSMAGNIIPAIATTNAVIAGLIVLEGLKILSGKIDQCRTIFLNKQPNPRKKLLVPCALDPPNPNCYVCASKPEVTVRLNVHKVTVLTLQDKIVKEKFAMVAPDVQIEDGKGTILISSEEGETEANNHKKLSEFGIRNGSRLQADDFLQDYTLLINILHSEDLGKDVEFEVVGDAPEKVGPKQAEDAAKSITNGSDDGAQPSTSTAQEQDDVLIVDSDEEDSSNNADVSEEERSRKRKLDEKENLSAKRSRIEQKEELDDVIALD
Sequence of SUMO E1/E2 (P63279 whole entry): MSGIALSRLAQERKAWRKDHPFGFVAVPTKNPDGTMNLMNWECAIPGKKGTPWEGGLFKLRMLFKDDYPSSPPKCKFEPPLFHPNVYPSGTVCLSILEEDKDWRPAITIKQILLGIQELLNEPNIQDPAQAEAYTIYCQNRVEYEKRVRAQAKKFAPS

[19] = target: T1, Aminopeptidase N (Plasmodium falciparum FcB1/Columbia, UniProt O96935); assay: malaria alanyl aminopeptidase activity blockers – biochemical, fluorogenic H-Leu-NHMec substrate, 1536-well (AID 1445); set-up: species or system Plasmodium falciparum 3D7, 3D7
T1 sequence (O96935 whole entry): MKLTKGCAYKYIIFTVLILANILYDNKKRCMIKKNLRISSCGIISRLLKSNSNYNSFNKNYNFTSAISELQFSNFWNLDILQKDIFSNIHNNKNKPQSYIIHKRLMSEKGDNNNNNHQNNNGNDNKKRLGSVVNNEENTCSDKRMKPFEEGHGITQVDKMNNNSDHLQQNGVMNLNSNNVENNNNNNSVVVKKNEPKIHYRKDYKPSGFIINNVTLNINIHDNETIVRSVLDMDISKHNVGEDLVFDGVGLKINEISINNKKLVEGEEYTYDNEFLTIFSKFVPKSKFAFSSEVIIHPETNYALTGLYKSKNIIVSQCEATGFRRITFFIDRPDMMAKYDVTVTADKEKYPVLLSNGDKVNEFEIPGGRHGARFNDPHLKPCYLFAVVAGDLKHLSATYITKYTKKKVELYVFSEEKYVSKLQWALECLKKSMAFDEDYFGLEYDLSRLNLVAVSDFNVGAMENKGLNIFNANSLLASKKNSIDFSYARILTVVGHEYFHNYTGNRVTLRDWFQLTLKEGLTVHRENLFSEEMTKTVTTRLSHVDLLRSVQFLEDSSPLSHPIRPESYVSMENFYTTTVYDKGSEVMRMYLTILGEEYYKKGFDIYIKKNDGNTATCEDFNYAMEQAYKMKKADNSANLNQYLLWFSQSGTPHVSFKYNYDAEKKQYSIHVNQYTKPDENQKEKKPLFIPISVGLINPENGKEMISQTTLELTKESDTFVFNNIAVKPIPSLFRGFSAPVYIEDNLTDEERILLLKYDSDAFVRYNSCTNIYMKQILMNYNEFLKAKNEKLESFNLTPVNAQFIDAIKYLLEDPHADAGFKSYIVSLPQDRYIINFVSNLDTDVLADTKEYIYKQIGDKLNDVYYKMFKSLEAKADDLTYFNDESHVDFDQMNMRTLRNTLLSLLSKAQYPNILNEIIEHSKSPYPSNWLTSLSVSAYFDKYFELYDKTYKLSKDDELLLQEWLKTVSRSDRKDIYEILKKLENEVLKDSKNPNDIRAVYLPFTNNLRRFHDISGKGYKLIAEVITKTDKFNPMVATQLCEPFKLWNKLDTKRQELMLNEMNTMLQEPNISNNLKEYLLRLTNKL

[20] = target: T2, SUMO-activating enzyme (Homo sapiens, UniProt Q9UBT2); assay: blockers of SAE1/SAE2–UBC9 SUMO transfer – biochemical, HTRF, uHTS, primary screen (AID 2006); assay type: protein-complex assay
T2 sequence (Q9UBE0 whole entry): as the sequence (Q9UBE0 whole entry) above
T2 sequence (Q9UBT2 whole entry): as the sequence (Q9UBT2 whole entry) above

[21] = target: Heat shock protein HSP 90-alpha (Homo sapiens, UniProt P07900); assay: Luminescence-based dose response biochemical high throughput screening assay for inhibitors of the Heat Shock Protein 90 (HSP90). [Related pubchem assays: 1831 (Summary AID.), 1846 (Confirmation screen.), 1789 (Primary screen.)]
[22] = target: T3, Tyrosyl-DNA phosphodiesterase 2 (Homo sapiens, UniProt O95551); assay: potency against TDP2 phosphodiesterase activity – biochemical, epi absorbance, IC50, dose response (AID 743297)
T3 sequence (O95551 whole entry): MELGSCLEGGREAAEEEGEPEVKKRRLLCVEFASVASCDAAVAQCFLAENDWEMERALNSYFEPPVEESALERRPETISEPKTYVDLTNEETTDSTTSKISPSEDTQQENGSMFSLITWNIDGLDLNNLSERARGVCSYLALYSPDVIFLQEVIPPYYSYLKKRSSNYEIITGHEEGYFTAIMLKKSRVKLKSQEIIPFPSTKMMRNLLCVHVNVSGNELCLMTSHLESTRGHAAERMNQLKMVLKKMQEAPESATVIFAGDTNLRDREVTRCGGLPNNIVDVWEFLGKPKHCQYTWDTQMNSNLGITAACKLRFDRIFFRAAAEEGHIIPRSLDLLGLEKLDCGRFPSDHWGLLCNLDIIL

[23] = target: T2, SUMO-activating enzyme; assay: blockers of UBC9-mediated SUMO conjugation – biochemical, AlphaScreen, SUMOylation inhibitor project, confirmation (AID 2018); assay type: functional
[24] = target: Prothrombin (Homo sapiens, UniProt P00734); assay: Thrombin 1536 HTS Dose Response Confirmation. [Related pubchem assays: 1046 (Thrombin 1536 HTS; hits were confirmed in this assay)]; assay type: functional
[25] = target: Mitogen-activated protein kinase 10 (Homo sapiens, UniProt P53779); assay: Dose response biochemical screening assay for inhibitors of c-Jun N-Terminal Kinase 3 (JNK3). [Related pubchem assays: 746 ]
Sequence of Mitogen-activated protein kinase 10 (P53779 whole entry): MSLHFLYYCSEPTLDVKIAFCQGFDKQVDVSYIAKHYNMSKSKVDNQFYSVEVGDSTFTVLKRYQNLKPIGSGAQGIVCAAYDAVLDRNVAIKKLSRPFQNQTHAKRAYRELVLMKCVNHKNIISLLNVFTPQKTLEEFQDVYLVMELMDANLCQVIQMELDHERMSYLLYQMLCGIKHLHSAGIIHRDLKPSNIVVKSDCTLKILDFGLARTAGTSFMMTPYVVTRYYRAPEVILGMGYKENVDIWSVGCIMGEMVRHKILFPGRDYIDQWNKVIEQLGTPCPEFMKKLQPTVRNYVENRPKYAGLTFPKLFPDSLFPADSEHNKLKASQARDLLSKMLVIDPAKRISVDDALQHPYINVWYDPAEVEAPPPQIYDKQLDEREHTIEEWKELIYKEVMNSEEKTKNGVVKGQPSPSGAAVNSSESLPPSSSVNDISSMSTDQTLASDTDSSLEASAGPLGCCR

[26] = target: Diphosphomevalonate decarboxylase (Streptococcus pneumoniae serotype 2 (strain D39 / NCTC 7466), UniProt Q9FD53); assay: diphosphomevalonate decarboxylase inhibitor confirmation – biochemical, cuvette format, coupled NADH fluorescence (AID 1028); assay type: functional
Sequence of Diphosphomevalonate decarboxylase (Q9FD53 whole entry): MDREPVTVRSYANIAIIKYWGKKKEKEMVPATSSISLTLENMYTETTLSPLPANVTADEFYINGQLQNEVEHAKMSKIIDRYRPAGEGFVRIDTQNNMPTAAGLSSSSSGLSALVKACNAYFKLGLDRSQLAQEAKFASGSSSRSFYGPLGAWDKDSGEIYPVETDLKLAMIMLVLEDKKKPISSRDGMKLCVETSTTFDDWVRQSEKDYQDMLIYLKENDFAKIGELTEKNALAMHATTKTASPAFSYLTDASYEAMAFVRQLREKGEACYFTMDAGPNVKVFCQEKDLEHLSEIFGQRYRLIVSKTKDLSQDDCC

Compound: Fc1ccc(C(OCCN2CCN(CCCc3ccccc3)CC2)c2ccc(F)cc2)cc1
IC50 [1]: 1.49 µM (active) | IC50 [2]: 0.113 µM (active) | IC50 [3]: 5.73 µM (not active) | IC50 [4]: 0.903 µM (active) | IC50 [5]: > 10 µM (inactive) | IC50 [6]: > 20 µM (inactive) | IC50 [7]: 1.82 µM (active) | IC50 [8]: 2.07 µM (active) | IC50 [9]: 4.87 µM (active) | IC50 [10]: > 10 µM (inactive)

IC50 [11]: > 100 µM (not active)
Compound: CCN(CC)CCCN1C(=O)C(O)=C(C(=O)c2ccccc2)C1c1ccccn1 (stereo unspecified)

IC50 [12]: > 39.8 µM (not active) | IC50 [13]: 18.7 µM (not active)
Compound: CC(=O)Nc1cccc(Oc2nc(C(F)(F)F)nc3ccccc23)c1

EC50 [14]: 12.3 µM (not active)
Compound: COc1ccc(-c2nc(C)c(C(C)=O)n2O)cc1

Compound: Cc1nc(O)c(C#N)c(C)c1CSc1ncccn1
EC50 [15]: > 112 µM (not active) | EC50 [16]: 3.68 µM (active) | EC50 [17]: < 1 µM (active)

IC50 [18]: 4.29 µM (active) | IC50 [19]: 36.2 µM (active) | IC50 [20]: 1.5 µM (active) | IC50 [21]: 1.61 µM (active) | IC50 [22]: 68.1 µM (inactive) | IC50 [23]: 0.88 µM (active)
Compound: C=CCn1c(NS(=O)(=O)c2ccccc2)c(S(=O)(=O)c2ccc(C)cc2)c2nc3ccccc3nc21

IC50 [24]: 4.14 µM (active) | IC50 [25]: > 93.1 µM (not active)
Compound: Cc1ccc2c(c1)CC1(CN2C)C(=O)OC2(CCCCC2)OC1=O

Compound: Cc1ccc(-n2sc3ccccc3c2=O)cc1S(=O)(=O)N1CCCC1
IC50 [26]: 4.15 µM (active)
